Measurements reported in publication PMC6691809 (Mycobiology, 2019).

What was measured:
[1] = target: neuraminidase from recombinant H3N2 influenza A virus (Influenza A virus, UniProt P03482); test: biochemical; format: biochemical
[2] = target: neuraminidase from recombinant H5N1 influenza A virus (Influenza A virus, UniProt Q6DPL2); test: biochemical
Chain of neuraminidase from recombinant H5N1 influenza A virus (Q6DPL2 whole entry, looked up): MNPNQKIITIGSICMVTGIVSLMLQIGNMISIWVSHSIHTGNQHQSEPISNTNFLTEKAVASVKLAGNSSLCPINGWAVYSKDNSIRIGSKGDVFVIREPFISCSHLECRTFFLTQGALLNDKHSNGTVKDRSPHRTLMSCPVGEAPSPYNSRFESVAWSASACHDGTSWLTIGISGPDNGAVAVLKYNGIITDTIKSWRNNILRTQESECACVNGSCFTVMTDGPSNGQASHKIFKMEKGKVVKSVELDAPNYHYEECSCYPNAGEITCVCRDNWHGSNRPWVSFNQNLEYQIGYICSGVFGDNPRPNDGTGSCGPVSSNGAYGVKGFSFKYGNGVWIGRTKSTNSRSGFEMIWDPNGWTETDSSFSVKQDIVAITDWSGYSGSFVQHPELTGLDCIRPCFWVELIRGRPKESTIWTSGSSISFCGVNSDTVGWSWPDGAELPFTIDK

Chain of neuraminidase from recombinant H3N2 influenza A virus (P03482 whole entry): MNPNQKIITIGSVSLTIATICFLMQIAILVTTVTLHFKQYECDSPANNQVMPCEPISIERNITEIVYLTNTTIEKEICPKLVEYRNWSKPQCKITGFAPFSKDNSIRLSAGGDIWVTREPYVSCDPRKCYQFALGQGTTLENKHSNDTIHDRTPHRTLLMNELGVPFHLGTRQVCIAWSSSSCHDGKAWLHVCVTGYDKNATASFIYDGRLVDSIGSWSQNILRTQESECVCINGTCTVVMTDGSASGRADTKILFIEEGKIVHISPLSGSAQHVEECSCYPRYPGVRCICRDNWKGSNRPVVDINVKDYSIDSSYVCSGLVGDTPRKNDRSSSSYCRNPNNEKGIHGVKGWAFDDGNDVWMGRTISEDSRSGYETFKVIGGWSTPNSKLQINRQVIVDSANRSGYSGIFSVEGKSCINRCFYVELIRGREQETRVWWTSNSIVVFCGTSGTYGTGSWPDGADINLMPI

With `C/C=C/C1=CC2=C(CO1)C(=O)[C@](C)(O)[C@H](OC(=O)c1c(C)cc(O)cc1O)C2` [Compound 3, comazaphilone D] the Inhibition type [1] was “Non-competitive (35.3)”, the Ki [1] was 35.3 µM and the IC50 ([1]; IC50 H3N2 neuraminidase) was 30.9 ± 0.1 µM. It also gave an IC50 [2] of 35.7 ± 0.2 µM.
